The values that follow come from article PMC9731865, “Gambogic acid and juglone inhibit RNase P through distinct mechanisms” (The Journal of Biological Chemistry, 2022).

Experiment [1] deals with B. subtilis RNase P. As to the kind of experiment: B. subtilis RNase P activity assay (FP, real-time). Particulars: ratio of IC50 values. It is filed as biochemical. On the procedure:
Figure 4 Gambogic acid and juglone inhibit A. thaliana PRORP1 (green), human MRPP1/2/3 (red), and B. subtilis RNase P (blue). Compounds gambogic acid (A) and juglone (B) were incubated with enzyme at double the reaction concentration for 30 min prior to the addition of an equal volume of substrate to initiate the reaction. PRORP1 reactions (shown in green) were performed with 0.3 nM PRORP1 and 800 nM pre-tRNA containing 40 nM Fl-pre-tRNA at 25 °C in 30 mM MOPS pH 7.8, 5 mM MgCl2, 100 mM NaCl, 1 mM TCEP, 500 nM (12 μg/ml) yeast tRNA, 5 mM spermidine, 6.65 μg/ml BSA, and 0.01% NP-40. MRPP1/2/3 reactions (shown in red) were performed using 50 nM MRPP3, 500 nM MRPP1/2, 500 nM pre-tRNA containing 40 nM Fl-pre-tRNA at 37 °C in 50 mM MOPS (pH 7.8), 1 mM TCEP, 4.5 mM MgCl2, and 100 mM NaCl. B. subtilis RNase P reactions (shown in blue) were performed using 20 nM RNase P and 500 nM pre-tRNA containing 40 nM Fl-pre-tRNA at 37 °C in 50 mM Tris, pH 7.2, 5 mM MgCl2, 100 mM KCl, 500 nM (12 μg/ml) yeast tRNA, 20 mM dithiothreitol (DTT), 10 mM spermidine, and 0.01% NP-40. Equation 1 was fit to each dataset.
The inhibition of B. subtilis RNase P activity by gambogic acid and juglone was measured using a previously developed FP assay in real-time.^25 Reactions were performed under multiple turnover conditions using 20 nM RNase P and 500 nM Fl-pre-tRNA^Asp in 50 mM Tris (pH 7.2), 5 mM MgCl2, 100 mM KCl, 500 nM (12 μg/ml) yeast tRNA^mix, 20 mM dithiothreitol, 10 mM spermidine, and 0.01% NP-40 at 37 °C.

The target in experiment [2] is T1, PRORP1 C353A (Arabidopsis thaliana, UniProt Q66GI4, C353A).
T1 construct: made in house
Put plainly: Time-dependent inactivation by juglone, PRORP1 C353A. It is filed as biochemical, A. thaliana. On the procedure:
Given the multiple sites of cysteine modification, we wanted to identify the one(s) that potentially play a significant role in PRORP1 inactivation. Therefore, several cysteine-to-alanine point mutants were expressed, purified, and subjected to inhibition studies. We tested both single-site (C353A and C373A) and double-site (C353A/C373A and C222A/C353A) mutations. […] The value of kinact,app for each PRORP1 at varied concentrations of juglone was determined by fitting a single exponential equation (Equation 5) to the data (Fig. 10A). Unexpectedly, the values of kinact/KI (reflecting the inhibition of E + I to form EI∗) increased for a number of the PRORP1 variants: wildtype (0.001 ± 0.00004 μM^-1 min^-1), C353A (0.005 ± 0.002 μM^−1 min^−1), C373A (0.002 ± 0.0004 μM^-1 min^−1), C222A/C353A (0.003 ± 0.0001 μM^−1 min^−1), and C353A/C373A (0.0008 ± 0.0002 μM^-1 min^−1). These modest increases could be due to a decrease in the KI value or an increase in the value of kinact. […] Although, we cannot discount the possibility, however unlikely, that juglone may employ a mode of inhibition beyond cysteine residue modification that our crystal structures fail to capture.
Figure 10 Effects of PRORP1 cysteine mutations on juglone inactivation. […]
For the analysis of juglone, PRORP1 activity was measured with varying preincubation time and juglone concentration. […]

Each structure is given as a SMILES string.

T1 sequence (Q66GI4 77-572 C353A): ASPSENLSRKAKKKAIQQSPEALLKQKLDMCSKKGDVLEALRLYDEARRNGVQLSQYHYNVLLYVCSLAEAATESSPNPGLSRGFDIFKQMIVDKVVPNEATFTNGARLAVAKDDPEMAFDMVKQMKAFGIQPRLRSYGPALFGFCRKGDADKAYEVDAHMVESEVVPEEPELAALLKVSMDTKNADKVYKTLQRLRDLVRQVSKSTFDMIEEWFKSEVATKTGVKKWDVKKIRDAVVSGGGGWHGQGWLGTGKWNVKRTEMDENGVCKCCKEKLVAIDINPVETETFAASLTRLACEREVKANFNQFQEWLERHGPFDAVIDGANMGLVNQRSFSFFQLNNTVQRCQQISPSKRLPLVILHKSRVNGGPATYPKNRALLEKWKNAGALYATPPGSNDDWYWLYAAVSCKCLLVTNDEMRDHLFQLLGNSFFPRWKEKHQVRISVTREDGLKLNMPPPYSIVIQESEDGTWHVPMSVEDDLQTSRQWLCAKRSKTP

Consider `CC(C)=CCC[C@]1(C)C=Cc2c(O)c3c(c(CC=C(C)C)c2O1)O[C@]12C(=C[C@@H]4C[C@H]1C(C)(C)O[C@@]2(C/C=C(/C)C(=O)O)C4=O)C3=O` [gambogic acid], for which the “fold less potent against B. subtilis RNP RNase P than against PRORP1 and MRPP1/2/3” value in experiment [1] is recorded as “at least 50 fold”; in experiment [1] (listed as Gambogic acid), “more than 50 fold”.
`O=C1C=CC(=O)c2c(O)cccc21` [juglone, 5-hydroxy-1,4-naphthalenedione]: in experiment [2], the Ki was above 10 µM and the second-order inactivation constant (kinact/KI) was 83.3 M⁻¹ s⁻¹.

A word on the kinact/KI: it is the second-order rate constant of inactivation.
